In patent US20110046058A1, “COMPOSITIONS FOR ENTERAL ABSORPTION AND SUSTAINED ACTION OF LEPTIN-RELATED PEPTIDES USEFUL IN THE TREATMENT OF OBESITY AND LEPTIN-MODULATED DISEASE” (AEGIS THERAPEUTICS LLC, priority 2009, published 2011):
Where two headings read alike, the source gives them in different places. One block for each molecule: values may come before it. Where a SMILES comes first, the peptide text is derived from it.

How the values were obtained:
[1] = mouse, in vivo, 1 mg
Method: (§1) Six week-old male Swiss Webster mice weighing approximately 30 gm were maintained at a constant temperature (24 C) with lights on from 07:00 to 19:00 h, and allowed food and water ad libitum until used for uptake studies. […] For sc, im, and ip delivery, the peptide was dissolved in sterile phosphate buffered saline (PBS, pH 7.2) at a concentration of 1 mg/200 μL as described previously containing 0.18% tetradecyl-beta-D-maltoside. For oral gavage [D-Leu-4]OB3 was dissolved in 0.3% dodecyl-beta-D-maltoside reconstituted in PBS (pH 7.2) at a concentration of 1 mg/200 μL. At time zero (0), a single 200 μL sc, im, ip or oral dose of mouse [D-Leu-4]OB3 was given to each of six mice per time point. Following peptide administration, the mice were transferred to separate cages for the designated time period.
(§2) Five, 10, 20, 40, 60, or 120 minutes after peptide delivery, the mice were anesthetized with isoflurane (5%) and exsanguinated by cardiac puncture. The blood was collected in sterile nonheparinized plastic centrifuge tubes and allowed to stand at room temperature for 1 h. The clotted blood was rimmed from the walls of the tubes with sterile wooden applicator sticks. Individual serum samples were prepared by centrifugation for 30 min at 2600×g in an Eppendorf™ 5702R, A-4-38 rotor (Eppendorf North America, Westbury, N.Y., USA), and stored frozen until assayed for mouse [D-Leu-4]OB3 content by competitive ELISA.
(§3) The [D-Leu-4]OB3 competitive ELISA assay was carried out as follows. 96-well polystyrene plates (Pierce Biotechnology, Inc., Rockford, Ill., USA) were coated with 100 μL of a 5 ug/ml solution of BSA-conjugated mouse [D-Leu-4]OB3 (QED Bioscience, San Diego, Calif.) in carbonate-bicarbonate buffer (pH 9.4). The coated plates were incubated overnight at 4 C. Unoccupied sites were blocked with 200 μL StartingBlock™ in PBS (Pierce Biotechnology Inc., Rockford, Ill., USA) for 2 h at room temperature. Mouse [D-Leu-4]OB3 standards ranging from 5 to 10,000 ng/ml are prepared in PBS (pH 7.2). In a separate incubation, 100 μL of mouse [D-Leu-4]OB3 primary antibody raised in New Zealand White rabbits (QED Bioscience, San Diego, Calif.) and diluted to 1:5000 in StartingBlock™, or 100 μL of the primary antibody+50 μL of each standard or serum sample are added to 500 μL microcentrifuge tubes and incubated for 1 h at 37 C. At the end of the incubation period, 100 μL of each antibody-bound standard or sample were added to the wells and incubated for 1 h at room temperature. HRP-conjugated goat-anti-rabbit IgG (Pierce Biotechnology Inc, Rockford, Ill., USA) was used as the secondary antibody. 100 μL was added to each well and incubated for 1 h at room temperature. At the end of the incubation period, 100 μL of ABTS substrate (Pierce Biotechnology Inc, Rockford, Ill., USA) was added to each well and incubated for 30 minutes on a rotary rocker. Color development was stopped with 1% SDS. Absorbance was read at 405 nm with a Molecular Devices microplate reader (MDS Sciex, Concord, Ontario Canada). Each sample was assayed in triplicate. […] The relative bioavailability was determined by plotting the serum concentrations of mouse [D-Leu-4]OB3 vs. time following ip, sc, or im delivery using the graphics program SigmaPlot™ 8.0 (SPSS Science, Chicago, Ill., USA). The area under each curve (AUC) was calculated with a function of this program.

[2] = mouse, in vivo
Method: (§4) Six week-old male Swiss Webster mice weighing approximately 30 g were obtained from Taconic Farms (Germantown, N.Y., USA). The animals were housed three per cage in polycarbonate cages fitted with stainless steel wire lids and air filters, and supported on ventilated racks (Thoren Caging Systems, Hazelton, Pa., USA) in the Albany Medical College Animal Resources Facility. The mice were maintained at a constant temperature (24° C.) with lights on from 07:00 to 19:00 h, and allowed food and water ad libitum until used for uptake studies.
(§5) Following peptide administration the mice were transferred to separate cages for the designated time period.
(§6) Five, 10, 20, 40, 60, or 120 min after peptide delivery, the mice were anesthetized with isoflurane (5%) and exsanguinated by cardiac puncture. The blood was collected in sterile nonheparinized plastic centrifuge tubes and allowed to stand at room temperature for 1 h. The clotted blood was rimmed from the walls of the tubes with sterile wooden applicator sticks.
(§7) The coated plates were incubated overnight at 4° C. Unoccupied sites were blocked with 200 μL StartingBlock™ in PBS (Pierce Biotechnology Inc., Rockford, Ill., USA) for 2 h at room temperature. […] At the end of the incubation period, 100 μL of each antibody-bound standard or sample was added to the wells and incubated for 1 h at room temperature. HRP-conjugated goat-anti-rabbit IgG (Pierce Biotechnology Inc. Rockford, Ill., USA) was used as the secondary antibody. 100 μL was added to each well and incubated for 1 h at room temperature.

[3] = mouse, in vivo; remark: listed apart in the source
Method: as §1, §2, §3

[4] = mouse, in vivo; remark: listed apart in the source
Method: as §4, §5, §6, §7

[5] = in vivo
From the text: (§8) Typically, an acceptable daily intake for humans is about 1% of the NOAEL, which translates to about 14-21 grams, or 14 million micrograms to 21 million micrograms, per day, indefinitely.

[6] = FAO/WHO report; cited from earlier work
[7] = NOAEL of alkylsaccharide (FAO/WHO report); conditions: per day, indefinitely
From the text: as §8

AUC ([1]; im): 24700 ng·h/mL
AUC ([1]; ip): 17900 ng·h/mL
AUC ([1]; po): 9320 ng·h/mL
AUC ([1]; sc): 19700 ng·h/mL
Cmax ([2]; im, 1 mg): 46600 ng/mL
Tmax ([2]; im, 1 mg): 5 min
AUC ([2]; im, 1 mg, AUC): 24700 ng·h/mL
half-life ([2]; im, 1 mg, t1/2 (serum half-life)): 48.8 min
AUC ([2]; inhaled or intranasal, 1 mg, AUC1): 15400 ng·h/mL
AUC ([2]; inhaled or intranasal, 1 mg, AUC2): 56900 ng·h/mL
half-life ([2]; inhaled or intranasal, t1/2 1): 7 min
half-life ([2]; inhaled or intranasal, t1/2 1 + t1/2 2 (overall half-life)): 41.1 min
half-life ([2]; inhaled or intranasal, t1/2 2): 34.1 min
Cmax ([2]; ip, 1 mg): 22500 ng/mL
Tmax ([2]; ip, 1 mg): 5 min
AUC ([2]; ip, 1 mg, AUC): 17900 ng·h/mL
half-life ([2]; ip, 1 mg, t1/2 (serum half-life)): 30 min
Cmax ([2]; sc, 1 mg): 35100 ng/mL
Tmax ([2]; sc, 1 mg): 5 min
AUC ([2]; sc, 1 mg, AUC): 19700 ng·h/mL
half-life ([2]; sc, 1 mg, t1/2 (serum half-life)): 35 min
Relative Oral Bioavailability Compared to Three Injection Modes (% of AUC achieved by each respective injection) [3]: 52.2% of IP AUC
Relative Oral Bioavailability Compared to Three Injection Modes (% of AUC achieved by each respective injection) ([3]; po): 37.8% of IM AUC
CL1 [4]: 1.08 mL/min
CL2 [4]: 0.29 mL/min
Relative bioavailability [4]: 4.0
kelim1 [4]: 0.0986 min⁻¹
kelim2 [4]: 0.0203 min⁻¹
Relative bioavailability ([4]; im): 1.4
AUC ([4]; im, 1 mg): 1,481,060 ng/ml/min
CL (plasma clearance) ([4]; im, 1 mg): 0.68 mL/min
Vd (apparent volume of distribution) ([4]; im, 1 mg): 29.4 mL
CL1 + CL2 (overall clearance) ([4]; inhaled or intranasal): 1.37 mL/min
Vd1 ([4]; inhaled or intranasal): 1.1 mL
Vd1 + Vd2 (overall volume of distribution) ([4]; inhaled or intranasal): 15.4 mL
Vd2 ([4]; inhaled or intranasal): 14.3 mL
Cmax2 ([4]; inhaled or intranasal, 1 mg): 69,069 ng/ml
Tmax2 ([4]; inhaled or intranasal, 1 mg): 60 min
tmax1 ([4]; inhaled or intranasal, 1 mg): 10 min
Relative bioavailability ([4]; ip): 1.0
AUC ([4]; ip, 1 mg): 1,072,270 ng/ml/min
CL (plasma clearance) ([4]; ip, 1 mg): 0.93 mL/min
Vd (apparent volume of distribution) ([4]; ip, 1 mg): 65.5 mL
Relative bioavailability ([4]; sc): 1.1
AUC ([4]; sc, 1 mg): 1,182,498 ng/ml/min
CL (plasma clearance) ([4]; sc, 1 mg): 0.85 mL/min
Vd (apparent volume of distribution) ([4]; sc, 1 mg): 42.9 mL
t1/2 (serum half-life) ([4]; sc, 1 mg): 34.0 min
Molecule: CC(C)C[C@@H](NC(=O)[C@H](CO)NC(=O)[C@H](CS)NC(=O)[C@@H](N)CO)C(=O)N1CCC[C@H]1C(=O)N[C@@H](CCC(N)=O)C(=O)N[C@H](C(N)=O)[C@@H](C)O [mouse [D-Leu-4]OB3] (HELM PEPTIDE1{S.C.S.[dL].P.Q.T.[am]}$$$$V2.0; N-terminus assumed)

Molecule: sucrose dodecanoate
amount a 70 kilogram person can consume per day without any observable adverse effect [5]: 1400-2100 grams
NOAEL [6]: 20-30 grams/kilogram/day
acceptable daily intake for humans (about 1% of the NOAEL) [7]: 14-21 grams
